What all share (assay type): binding, mouse
The subject of assay [1] is monoclonal anti-p24 antibody (Mab 7). The assay can be described thus: Competitive kinetics: synthetic p24 derived peptides mixed with p24 over captured anti-p24 Mab (BIAcore SPR). The following applies: for affinity for the antibody (qualitative): p24 at 60 nM and the peptides at 44 μM, FIG. 4. The protocol: With the above prepared sensor surface docked into the BIAcore™ instrument, a solution of purified monoclonal anti-p24 antibody (Pharmacia Diagnostics AB, Uppsala, Sweden), hereinafter referred to as Mab 7, was injected, the anti-p24 monoclonal antibody thereby being captured by the immobilized RAMFc. Different solutions of HIV core protein p24 (Pharmacia Genetic Engineering, San Diego, USA), varying in concentration from 18.75 to 300 nM, were then injected and the binding curves, relative response in resonance units (RU) versus time in seconds, were recorded (1 RU corresponds to a mass change, caused by the binding of a protein, on the sensor surface of about 1 pg/mm^2; Stenberg, E., et al., J. Colloid and Interface Sci. 143 (1991) 513-526).
100 μl volumes of a 60 nM solution of p24 in HBS were mixed with 100 μl of different concentrations (5 nM to 1 mM) of two synthetic p24 derived peptides corresponding to (i) the regions 329-352 (peptide 7): […] (Mw =2494), and (ii) the regions 332-349 (peptide 5): […] (Mw =1841) (obtained from Dr Ake Engstrom, Department of Immunology, Biomedical Center, University of Uppsala, Sweden). The peptide sequences are according to Ratner et al., Nature 313, 227-284, 1985 and are numbered according to Myers G. et al., Database Human Retroviruses and AIDS, Los Alamos National Laboratory, Los Alamos, U.S.A., 1988. Each mixture was injected at 10 μl/min for two minutes over the sensor surface with captured anti-p24 antibody and the respective binding curves for each peptide were recorded. Peptide 5 was used at the concentrations: 0, 4.91, 14.75, 44.26, 132.78, 398.33, and 1195.00 μM; and peptide 7 at the concentrations 0, 0.005, 0.016, 0.049, 0.147, 0.441, and 1.323 μM.
The binding curves for peptide 5 are shown in overlay plot in FIG. 2, and a corresponding overlay plot of the binding curves for peptide 7 is shown in FIG. 3. […] Evidently, these two peptides have quite different affinities for the immobilized antibody.

In assay [2] the test system is monoclonal anti-theophylline antibody. Description: Competitive kinetics: theophylline derivatives mixed with aminotheophylline-conalbumin conjugate over captured anti-theophylline Mab (BIAcore SPR). The following applies: 500 nM ligand solution mixed with 620 nM conjugate solution; 10 μl/min for 90 seconds; FIG. 5.
Protocol: (§1) A continuous flow of HBS (10 mM Hepes with 0.15M NaCl, 3.4 mM EDTA and 0.05% surfactant P20 at pH 7.4) was maintained over a BIAcore™ sensor chip CM5 (a gold-plated glass slide supporting a carboxymethyldextran layer via a monolayer of long-chain hydrocarbons; supplied by Pharmacia Biosensor AB, Uppsala, Sweden). The carboxylated matrix on the sensor surface was activated by a three-minute injection of a solution containing 0.2M N-ethyl-N'-(3-diethylaminopropyl)carbodiimide (EDC) and 0.05M N-hydroxysuccinimide (NHS). 100 μg/ml of rabbit anti-mouse Fc (RAMFc) antibodies (Pharmacia Biosensor AB, Uppsala, Sweden) in 10 mM acetate buffer, pH 4.75, were then injected followed by a pulse of ethanolamine-hydrochloride, pH 8.5, to block remaining NHS-ester groups.
Different solutions of the above prepared conalbumin conjugate varying in concentration from 100 to 1000 nM, were then injected and the binding curves were recorded.
Assay [3] relates to monoclonal anti-histamine antibody. The assay can be described thus: Competitive kinetics: histamine and methylhistamine mixed with histamine-conalbumin conjugate over captured anti-histamine Mab (BIAcore SPR). The following applies: 220 nM ligand solution mixed with 80 nM conjugate solution; 10 μl/min for 8 minutes; FIG. 6.
Protocol: as §1
Different solutions of the above prepared conalbumin conjugate, varying in concentration from 100 to 1000 nM, were then injected and the binding curves were recorded. […] For the following competitive experiment, a concentration of 80 nM was chosen.

Consider “TILKALGPAATLEEMMTA [peptide 5, synthetic p24 derived peptide, regions 332-349]”, for which the “peptide concentration at which competition is evident” value in assay [1] (mixed with 60 nM p24 solution, 10 μl/min for two minutes, FIG. 2) is given as “evident only at μM concentrations”. In assay [1], the “affinity for the antibody (qualitative)” value is listed as “low affinity”.
With `Cn1c(=O)c2c(ncn2CC(=O)O)n(C)c1=O` [acetic acid derivative of theophylline, 7-theophylline acetic acid], the “affinity for the antibody (relative ranking)” value (shortened to “affinity … (relative ranking)”) in assay [2] was “much lower affinity”.
As to aminotheophylline, the “affinity … (relative ranking)” value in assay [2] is recorded as “highest affinity”.
As for methylhistamine, in assay [3], the “affinity … (relative ranking)” value is reported as “higher affinity”.
In the case of “DCKTILKALGPAATLEEMMTACQG [peptide 7, synthetic p24 derived peptide, regions 329-352]”, the “peptide concentration at which competing kinetics is seen” value in assay [1] (mixed with 60 nM p24 solution, 10 μl/min for two minutes, FIG. 3) is listed as 5 nM. For the same compound, the “affinity for the antibody (qualitative)” value in assay [1] is recorded as “high affinity”.
For the compound `NCCc1c[nH]cn1` [histamine], the “affinity … (relative ranking)” value in assay [3] is reported as “methylhistamine has a higher affinity for the antibody than histamine itself”.

The values are drawn from patent US5753518A, “Method of determining affinity and kinetic properties” (Pharmacia AB, priority 1993, dated 1998).
